Laboratory results published in patent US20240082296A1, “TREATMENT OF MUSCLE ATROPHY USING DEXTRAN SULFATE” (TX MEDIC AB, priority 2020, published 2024).

Test system: hepatocyte growth factor (HGF)
Experiment: circulating HGF after dextran sulfate injection in ALS patients (Example 2)
Assay type: in vivo, human
Conditions: peak at 2.5 hours after injection; before 820±581; p<0.001
Description: A clinical trial in the form of a Phase IIa, single-center, open label, single-arm study where the safety, tolerability and possible efficacy of subcutaneously administered dextran sulfate was evaluated in patients with ALS of intermediate progression rate. The clinical trial was conducted at the Sahlgrenska University Hospital, Gothenburg, Sweden and was overseen and approved by the Ethics Committee of the University of Gothenburg and by the Swedish Medical Products Agency.
Dextran sulfate (Tikomed AB, Viken, Sweden, WO 2016/076780) was administered at 1 mg/kg by […] subcutaneous injection once a week for five weeks to 13 human patients suffering from ALS.
Blood samples were drawn at defined study intervals by a venous catheter into vacutainer tubes. Laboratory analyses of blood plasma were performed immediately after collection by the Clinical Chemistry Laboratory at the Sahlgrenska University Hospital.
This indicates the potential for direct myogenic, as well as indirect neurotrophic, HGF-mediated effects on muscle atrophy after dextran sulfate administration.

## dextran sulfate
  circulating HGF, peak: 37.9 ± 14.2 ng/mL
